Values quoted from earlier work in US20250099360A1 (Goodier Cosmetics, LLC, priority 2023, published 2025).

Test system: UV-B-induced lipid peroxidation
Conditions: UV-B radiation

SMILES: CCCCCCCCCCCCCCCC(=O)OC[C@H](O)[C@H]1OC(=O)C(O)=C1O [ascorbyl palmitate]
- effect on UV-B-induced lipid peroxidation: promotes UV-B-induced lipid peroxidation
